According to patent US20230190707A1, “COMPOSITIONS AND METHODS FOR ENHANCING CANCER IMMUNOTHERAPY” (FRED HUTCHINSON CANCER CENTER, priority 2020, published 2023):

What was measured:
MC38 cells [1] = assay: In vitro growth of MC38 cells after MS-023 treatment and washout; format: cell-based, mouse; conditions: 5 μM for 96 hours
Procedure: (§1) Unless otherwise specified, cell lines were treated with splicing inhibitors at the indicated concentrations for 96 hours in vitro, harvested and washed three times with PBS in excess to remove all drug, and then used for downstream analyses and/or subsequent studies, including phenotyping, RNA-seq analyses, continued growth in vitro, or tumor challenge in vivo into syngeneic animals.

MC38 cells [2] = assay: In vivo tumor challenge with ex vivo MS-023-treated MC38 cells; parameters: species or system mouse; conditions: MC38 cells treated 5 μM for 96 hours
Procedure: as §1
Unless otherwise specified, syngeneic B6 or Balb/c mice were engrafted subcutaneously on bilateral flanks with MC38, B16-F10, CT26 or LLC tumor cells at the following doses: MC38 10^6 cells, B16-F10 0.5×10^6 cells, CT26 0.25×10^6 cells, LLC 0.25×10^6 cells. Tumors were measured serially twice or three times weekly and tumor volumes were estimated by length×width×height. Animals were monitored daily for survival and weighed twice weekly. Experimental endpoints mandating euthanasia were approved by the IACUC and included: animal lethargy, severe kyphosis or evidence of pain, difficulty with ambulation or feeding, tumor ulceration>1 cm or bleeding tumor, evidence of infected tumor, tumor volumes exceeding 2.5 cm^3, or animal total body weight loss>10% from baseline.

MC38 tumors = assay: Therapeutic treatment with splicing compounds and anti-PD1, MC38 tumors; format: in vivo, mouse; conditions: three months following tumor implantation
Procedure: Animals were subcutaneously engrafted on bilateral flanks with tumor cells (MC38 1×10^6, B16-F10 0.5×10^6 and LLC 0.25×10^6 cells unless otherwise specified) on day 0, and treated continuously with splicing inhibitors (MS-023 50 mg/kg i.p., indisulam 25 mg/kg i.v. or vehicle) daily for 5 of 7 weekly days starting from day +3 of tumor challenge. […] Mice were weighed weekly for weight-based drug dosing.

RBM39 = target: T1, RBM39 (Mus musculus, UniProt Q6PFH3+Q8VH51); assay: RBM39 degradation, western blot densitometry; format: cell-based
T1 construct: endogenous in cells; host or cells: B16-F10 (also MC38, CT26, LLC)
Procedure: Western blotting was performed as per standard techniques. Anti-RBM39 (Atlas Antibodies, Cat. HPA001591 or Bethyl laboratories, Cat. A300-291A) were used to detect RBM39 degradation. ADMA and SDMA levels were determined using antibodies from Cell Signaling Technologies (Cat. 13222S and Cat. 135225). Actin antibody (clone AC-15) was obtained from MilliporeSigma (Cat. A5441-.2ML). Densitometry of RBM39 and actin loading control was performed using ImageJ software in order to calculate RBM39 degradation IC50 values.

[3] = test system: MHC I, MHC II, PD-L1, IFNγ receptors, TNF receptors, DR5; assay: Cell-surface marker expression after drug treatment; format: cell-based, mouse
H-2D^b = H-2D^b (Mus musculus, UniProt P01899); assay: MHC I immunoprecipitation and LC-MS/MS, H-2D^b; format: cell-based
Description: (§2) Peptide-MHC complexes were isolated as previously described (Abelin, J. G., et al. (2017). Mass Spectrometry Profiling of HLA-Associated Peptidomes in Mono-allelic Cells Enables More Accurate Epitope Prediction. Immunity 46, 315-326, incorporated herein by reference in its entirety), with the following modifications: anti-mouse H-2D^b (clone B22-249.R1, CedarLane laboratories, Cat. CL9001AP) or H-2K^b (clone Y-3, BioXCell Cat. BE0172) non-covalently linked to GammaBind Plus Sepharose beads were co-incubated with soluble lysates overnight. […]
(§3) Desalted, dried samples enriched for MHC peptides were resolubilized in 8 uL 0.10% TFA and 3 uL were loaded onto a packed-in-emitter 12 cm/75 um ID/3 um C18 particles column (Nikkyo Technos Co., Ltd. Japan). […] Precursor mass spectra were recorded from m/z 300-1500 m/z range at 60,000 resolution. […] MS/MS spectra were recorded at 30,000 resolution and lowest mass set at m/z 110. […] All experiments were recorded in FT-mode.
(§4) Mass spectra from all MHC immunoprecipitations were analyzed using Proteome Discoverer v2.4.1.15, with the following workflow. […]

H-2K^b = H-2K^b (Mus musculus, UniProt P01901); assay: MHC I immunoprecipitation and LC-MS/MS, H-2K^b; format: cell-based
Description: as §2, §3, §4

CD8^+ T cells [4] = assay: IFNγ ELISpot with indisulam-treated B16-F10 cells as antigen-presenting cells; format: cell-based, mouse; conditions: B16-F10 treated with indisulam 1 μM for 96 hours
Procedure: Such cells were then non-enzymatically harvested, washed repeatedly to remove IFNγ, and irradiated to 60 Gy from a ^60Co source to inhibit growth and further upregulate MHC I. […] IFNγ ELISpot was performed as per manufacturer's instructions (BD Biosciences, Cat. 551083). Spots were imaged and quantified on an Immunospot® analyzer (Cellular Technology Limited, Cleveland, Ohio).

CD8^+ T cells [5] = assay: Peptide:H-2K^b tetramer staining of tumor-draining lymph nodes; format: in vivo, mouse; conditions: B16-F10 tumor-bearing mice, day 14

Sequence of H-2K^b (P01901 22-369 limits assumed): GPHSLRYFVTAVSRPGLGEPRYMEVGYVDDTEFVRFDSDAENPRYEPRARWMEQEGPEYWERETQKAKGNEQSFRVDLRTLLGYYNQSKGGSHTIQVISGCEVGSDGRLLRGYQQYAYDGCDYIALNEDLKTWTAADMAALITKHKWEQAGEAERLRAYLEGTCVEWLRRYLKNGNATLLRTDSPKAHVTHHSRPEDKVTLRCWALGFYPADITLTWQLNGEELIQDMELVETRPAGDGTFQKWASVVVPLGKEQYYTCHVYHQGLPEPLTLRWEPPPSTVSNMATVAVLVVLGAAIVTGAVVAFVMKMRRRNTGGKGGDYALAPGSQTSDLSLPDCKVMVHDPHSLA
Sequence of H-2D^b (P01899 25-362 limits assumed): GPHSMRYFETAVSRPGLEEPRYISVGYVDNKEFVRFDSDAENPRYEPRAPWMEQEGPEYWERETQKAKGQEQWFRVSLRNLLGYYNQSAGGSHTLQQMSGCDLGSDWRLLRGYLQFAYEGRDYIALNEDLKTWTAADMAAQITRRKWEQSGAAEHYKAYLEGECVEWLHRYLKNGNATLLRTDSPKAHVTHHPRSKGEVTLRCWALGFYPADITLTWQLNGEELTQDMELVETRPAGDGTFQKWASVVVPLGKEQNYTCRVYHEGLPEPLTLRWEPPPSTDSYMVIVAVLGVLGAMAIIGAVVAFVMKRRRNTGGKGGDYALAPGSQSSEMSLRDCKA

SMILES | cell growth in vitro after drug washout (MC38 cells [1]) | tumor growth following engraftment into syngeneic, immune-competent mice (MC38 cells [2]) | mice alive and tumor-free (MC38 tumors) | RBM39 protein following drug removal (RBM39; ex vivo 1 μM for four days followed by drug washout) | DC50 (RBM39; range across B16-F10, MC38, CT26, LLC cells, 24 hours, read-out: IC50 values for RBM39 degradation) | cell-surface expression of MHC I, MHC II, PD-L1, or cytokine or death receptors [3] | peptides only recovered from indisulam-treated samples (H-2D^b; B16-F10 cells) | bound peptides arising from mRNA isoforms specifically promoted by indisulam treatment (H-2D^b; intersection with RNA-seq) | peptides only recovered from indisulam-treated samples (H-2K^b; B16-F10 cells) | bound peptides arising from mRNA isoforms specifically promoted by indisulam treatment (H-2K^b; intersection with RNA-seq) | antigen-specific T cell activation by indisulam-treated B16-F10 cells (CD8^+ T cells [4]) | frequencies of CD8^+ T cells recognizing splicing-derived peptides in tumor DLN (CD8^+ T cells [5])
CC(C)Oc1ccc(-c2c[nH]cc2CN(C)CCN)cc1 [MS-023] | minimal effects | durable suppression of tumor growth | 25% | – | – | – | – | – | – | – | – | –
NS(=O)(=O)c1ccc(S(=O)(=O)Nc2cccc3c(Cl)c[nH]c23)cc1 [indisulam] | – | – | – | sustained suppression of RBM39 protein | 0.06 to 1 µM | did not change | 518 | 42 | 366 | 28 | triggers antigen-specific T cell activation | increased frequencies of CD8^+ T cells
